1 molecule from article PMC6208908, “Field template-based design and biological evaluation of new sphingosine kinase 1 inhibitors” (Breast Cancer Research and Treatment, 2018) can be followed below.

A word on the IC50: it is the point on the concentration scale where inhibition reaches its midpoint. As a reminder, the Ki is the equilibrium dissociation constant of an inhibitor or competing ligand from its target. For orientation: inhibition means the relative decrease from the control value, in per cent.

Assay [1] deals with recombinant SK1 (Homo sapiens, UniProt Q9NYA1). In words: SK1 activity assay, cell-free (recombinant SK1 extract, radiolabelling). The assay is classed as biochemical. The method, then:
(§1) SK assay was performed using radiolabeling as previously described, in conditions favouring SK1 or SK2 activity as required.
The synthesised compounds were then screened for SK1 inhibition. Compounds SK-A to SK-F and SKI-II (commercial inhibitor of SK used as positive control with reported IC50 0.5 µM [14]) at 1 µM were incubated in the presence of recombinant SK1 extract (in excess), 1 µM of ATP, and exogenous 1 µM sphingosine for 1 h followed by measurement of SK1 activity.
(§2) Fig. 2 Inhibition of sphingosine kinase 1 in cell-free extract and in vitro. a 1 µM of compounds SK-A to SK-F and SKI-II (commercial inhibitor of SK used as a positive control) were incubated in the presence of recombinant SK1 extract (in excess), 1 µM of ATP, and 1 µM exogenous sphingosine for 1 h. b MDA-MB-231 cells were incubated with 1 µM of compounds SK-A to SK-F and SKI-II for 6 h. SK1 activity was measured as described in materials and methods. Columns, means of three independent experiments normalised to vehicle; bars, SEM. (ns, non-significant; *p < 0.05; **p < 0.01)
(§3) SK1 activity was determined in the presence of triton X-100 and SK2 activity was measured in the presence of high salt concentrations, conditions that favour SK1 and SK2, respectively. […] Km for SK1 was 6.97 ± 1.20 µM, Vmax 98 ± 4 µM/min/mg protein and Ki for SK-F 0.46 ± 0.1 µM. […] Some SK inhibitors such as SKI-II were previously shown to induce proteasomal degradation of SK1 [48, 49].

The target in assay [2] is T1, endogenous SK1 in MDA-MB-231 cells (Homo sapiens, UniProt Q9NYA1).
T1 construct: We treated MDA-MB-231 cells with 1 µM of compounds SK-A – SK-F and SKI-II as the positive control for 6 h; endogenous in cells; host or cells: MDA-MB-231
The assay is described as follows: SK1 activity in lysates of treated MDA-MB-231 cells. The assay is classed as cell-based. Particulars: 6 h. As for the experimental part: After incubation, cells were washed with ice-cold phosphate-buffered saline (PBS) and harvested.
as §1, §2
Reportedly, among human tumour cell lines, the breast cancer cell line MDA-MB-231 expresses high levels of SK activity. We treated MDA-MB-231 cells with 1 µM of compounds SK-A – SK-F and SKI-II as the positive control for 6 h and analysed SK1 activity in the cell lysates using SK1 activity assay.

Assay [3] concerns the target T2, recombinant SK2 (Homo sapiens, UniProt Q9NRA0).
T2 sequence (Q9NRA0 1-654): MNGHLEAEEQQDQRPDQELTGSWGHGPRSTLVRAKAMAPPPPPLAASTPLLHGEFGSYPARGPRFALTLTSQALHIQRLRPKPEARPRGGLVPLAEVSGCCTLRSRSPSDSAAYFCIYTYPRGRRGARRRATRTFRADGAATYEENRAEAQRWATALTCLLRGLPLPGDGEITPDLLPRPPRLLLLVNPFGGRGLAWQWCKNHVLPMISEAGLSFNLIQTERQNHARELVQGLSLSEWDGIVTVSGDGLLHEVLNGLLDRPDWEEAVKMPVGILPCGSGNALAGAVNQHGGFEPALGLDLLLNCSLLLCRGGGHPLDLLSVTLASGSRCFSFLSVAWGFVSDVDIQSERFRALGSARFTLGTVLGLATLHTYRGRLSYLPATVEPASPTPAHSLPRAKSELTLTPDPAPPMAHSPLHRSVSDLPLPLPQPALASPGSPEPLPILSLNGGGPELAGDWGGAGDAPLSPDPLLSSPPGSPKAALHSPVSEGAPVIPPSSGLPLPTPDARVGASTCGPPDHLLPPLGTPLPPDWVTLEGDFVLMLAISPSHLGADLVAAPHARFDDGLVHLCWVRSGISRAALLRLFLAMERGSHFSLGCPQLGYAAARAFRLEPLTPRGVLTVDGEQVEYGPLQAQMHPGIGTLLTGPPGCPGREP
In words: SK2 activity assay with recombinant SK2 (high salt), Lineweaver-Burk. The assay is classed as biochemical. The settings on record: Lineweaver-Burk plot, high salt (Figure S8B). As for the experimental part: as §1, §3

The test system of assay [4] is MDA-MB-231 cells. The assay is described as follows: MTT cell viability / proliferation assay. The assay is classed as cell-based, human. Particulars: for IC50: Homo sapiens. As for the experimental part: Cellular viability was measured using the 3-(4,5-dimethylthiazol-2-yl)-2,5-diphenyltetrazolium bromide (MTT; 5 mg/ml) colorimetric assay as already described.
Fig. 4 Effect of compounds SK-A to SK-F on breast cancer cell viability. MDA-MB-231 cells were incubated with 1, 2, 5 and 10 µM of compounds SK-A to SK-F for up to 120 h. Cell proliferation was measured using MTT assay. Columns, means of three independent experiments normalised to control; bars, SEM. (*p < 0.05; **p < 0.01; ^§p < 0.001). IC50 levels for SK-F for 72, 96 and 120 h were 7, 4.5 and 3 µM, respectively

Assay [5] deals with T3, SK1 in 4T1 cells (Mus musculus, UniProt Q8CI15).
T3 construct: endogenous in cells; host or cells: 4T1
The assay is described as follows: SK1 activity in 4T1 cells in vitro (Figure S10). The assay is classed as cell-based, murine.

Entries after “also recorded” stand apart in the source; their conditions may differ.

Chain of recombinant SK1 (Q9NYA1 whole entry): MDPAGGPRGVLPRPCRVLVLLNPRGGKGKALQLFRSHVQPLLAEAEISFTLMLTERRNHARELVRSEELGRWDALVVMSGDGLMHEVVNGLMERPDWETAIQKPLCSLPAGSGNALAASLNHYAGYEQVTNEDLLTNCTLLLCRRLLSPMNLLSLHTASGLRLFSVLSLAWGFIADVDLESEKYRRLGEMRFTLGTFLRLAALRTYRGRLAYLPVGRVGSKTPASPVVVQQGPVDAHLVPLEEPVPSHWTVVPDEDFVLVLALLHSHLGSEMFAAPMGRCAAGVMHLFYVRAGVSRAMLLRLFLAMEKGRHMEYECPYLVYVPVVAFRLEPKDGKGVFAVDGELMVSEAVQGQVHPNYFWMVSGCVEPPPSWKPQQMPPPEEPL
T1 sequence (Q9NYA1 whole entry): as above
T3 sequence (Q8CI15 whole entry): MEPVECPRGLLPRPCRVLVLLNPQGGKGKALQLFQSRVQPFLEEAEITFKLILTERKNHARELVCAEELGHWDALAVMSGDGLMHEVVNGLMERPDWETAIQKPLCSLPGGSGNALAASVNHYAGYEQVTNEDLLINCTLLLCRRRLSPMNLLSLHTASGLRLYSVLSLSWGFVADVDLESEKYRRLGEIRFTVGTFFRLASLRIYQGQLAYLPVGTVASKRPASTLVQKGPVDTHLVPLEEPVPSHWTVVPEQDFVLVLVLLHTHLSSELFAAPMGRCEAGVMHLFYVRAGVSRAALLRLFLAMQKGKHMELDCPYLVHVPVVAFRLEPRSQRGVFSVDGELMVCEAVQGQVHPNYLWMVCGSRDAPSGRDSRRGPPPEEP

With `CCCCCCCCc1ccc(NC(=O)c2ccccc2)cc1` [SK-F], the “inhibition of SK1 activity in cell-free settings” value in assay [1] (1 µM compound, recombinant SK1 extract in excess, 1 µM ATP, 1 µM sphingosine, 1 h) is “most potent inhibitor of SK1 activity; also recorded: statistically significant inhibition”. Also, the IC50 in assay [1] (Figure S7, read-out: IC50 for purified enzyme (SK1 activity dose response)) came out at 920 nM; in assay [4] (MDA-MB-231, 72 h), 7000 nM; in assay [4] (MDA-MB-231, 96 h) it was 4500 nM; in assay [4] (MDA-MB-231, 120 h), 3000 nM. Further, in assay [1] (Lineweaver-Burk plot, increasing sphingosine (Figure S8A)), the “mode of SK1 inhibition” value is listed as “competitive inhibitor”. Besides, the Ki in assay [1] (recombinant SK1, increasing sphingosine, triton X-100, Lineweaver-Burk) worked out at 460 ± 100 nM. In assay [2] (1 µM), the “SK1 activity in cells versus vehicle” value is on record as “significantly decreased”. For the same molecule, the inhibition at 1 µM in assay [2] (read-out: inhibition of SK1 activity in vitro) is 48.2%. In addition, in assay [3], the “inhibition of SK2” value is given as “no inhibition”. In addition, the “effect on MDA-MB-231 cancer cell proliferation” value in assay [4] (1, 2, 5 and 10 µM, up to 120 h) was “highest effect”. Besides, in assay [5], the “SK1 activity in 4T1 cells” value is “significant inhibition”.
